Experimental data reported in the supplement of paper PMC10331698.
± gives the standard deviation of the averaged measurements.

Experiments:
Test in all cases: level (log10 ratio to DMSO vehicle control); higher = higher biomarker level / cell amount than vehicle control
[1] = compound: O=C(O)C(F)(F)C(F)(F)C(=O)O [Tetrafluorosuccinic acid]; conditions: in DMSO
Protocol: (§1)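 BioMAP Diversity Plus panel of 12 human primary cell co-culture systems (3C, 4H, LPS, SAg, BT, BF4T, BE3C, CASM3C, HDF3CGF, KF3CT, MyoF, Mphg). Compounds were added 1 h before stimulation and left for 24 h (MyoF 48 h; BT 72 h for soluble read-outs or 6 d for IgG). Biomarkers were read by ELISA, cytotoxicity by SRB, PBMC viability and proliferation by Alamar Blue. Each well value was divided by the mean of 8 DMSO control wells on the same plate and log10 transformed; duplicate blinded samples were tested at 4 concentrations.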

[2] = compound: O=S(=O)(O)CCC(F)(F)C(F)(F)C(F)(F)C(F)(F)F [4:2 Fluorotelomer sulfonic acid]; conditions: in DMSO
Protocol: as §1

[3] = compound: O=C(CC(=O)C(F)(F)C(F)(F)C(F)(F)F)c1cccs1 [(Perfluorobutyryl)-2-thenoylmethane]; conditions: in DMSO
Protocol: as §1

[4] = compound: OCC(F)(F)C(F)(F)C(F)(F)C(F)(F)C(F)(F)C(F)(F)F [6:1 Fluorotelomer alcohol]; conditions: in DMSO
Protocol: as §1

[5] = compound: C=CC(=O)OCC(F)(F)C(F)(F)C(F)(F)C(F)(F)COC(=O)C=C [1H,1H,6H,6H-Perfluorohexane-1,6-diol diacrylate]; conditions: 6700 nM; in DMSO
Protocol: as §1

[6] = compound: O=C(O)C(F)(F)C(F)(F)C(F)(F)C(F)(F)C(F)(F)C(F)(F)C(F)(F)F [Perfluorooctanoic acid]; conditions: in DMSO
Protocol: as §1

[7] = compound: C=CC(=O)OCC(F)(F)C(F)(F)C(F)(F)C(F)(F)C(F)(F)C(F)(F)C(F)(F)C(F)F [1H,1H,9H-Perfluorononyl acrylate]; conditions: in DMSO
Protocol: as §1

Test System	level (log10) ([1]; 6700 nM)	level (log10) ([1]; 20000 nM)	level (log10) ([1]; 60000 nM)	level (log10) ([2]; 6700 nM)	level (log10) ([2]; 20000 nM)	level (log10) ([2]; 60000 nM)	level (log10) ([3]; 6700 nM)	level (log10) ([3]; 20000 nM)	level (log10) ([4]; 6700 nM)	level (log10) ([4]; 20000 nM)	level (log10) ([4]; 60000 nM)	level (log10) [5]	level (log10) ([6]; 6700 nM)	level (log10) ([6]; 20000 nM)	level (log10) ([6]; 60000 nM)	level (log10) ([7]; 6700 nM)	level (log10) ([7]; 20000 nM)	level (log10) ([7]; 60000 nM)
SAg:CD62E/E-Selectin	-0.015	-0.003 ± 0.016	0.0035 ± 0.0035	-0.016 ± 0.0085	-0.011 ± 0.0071	0.009 ± 0.0071	-0.164 ± 0.0092	-0.113 ± 0.02	0.0085 ± 0.026	-0.001 ± 0.0085	0 ± 0.025	-0.15 ± 0.021	0.009 ± 0.0057	0.015 ± 0.0085	0.086 ± 0.0014	-0.0345 ± 0.016	-0.0595 ± 0.015	-0.121 ± 0.052
BE3C:CXCL8/IL-8	0.0325 ± 0.052	0.0315 ± 0.071	0.0525 ± 0.0064	0.0165 ± 0.023	-0.009 ± 0.0085	0.0175 ± 0.0064	-0.0905 ± 0.013	-0.01 ± 0.023	0.004 ± 0.017	-0.0125 ± 0.042	-0.0075 ± 0.0064	-0.095 ± 0.013	-0.029 ± 0.055	-0.0165 ± 0.057	-0.0385 ± 0.0035	-0.0165 ± 0.016	-0.012 ± 0.013	-0.004 ± 0.024
BE3C:HLA-DR	-0.027 ± 0.0028	-0.0045 ± 0.0035	0.004 ± 0.0014	-0.013 ± 0.0085	0.003 ± 0.0042	-0.0225 ± 0.0021	-0.044 ± 0.0028	-0.41 ± 0.032	0.009 ± 0.025	-0.0085 ± 0.026	-0.077 ± 0.13	-0.048 ± 0.0071	-0.023 ± 0.0042	-0.0225 ± 0.023	-0.013 ± 0.034	-0.0215 ± 0.029	-0.01 ± 0.021	-0.0305 ± 0.012
SAg:SRB	-0.016 ± 0.023	-0.015 ± 0.011	-0.0225 ± 0.015	-0.0105 ± 0.005	-0.0085 ± 0.011	-0.009 ± 0.011	-0.012 ± 0.013	-0.0845 ± 0.0021	0.0065 ± 0.015	0 ± 0.0042	0.008 ± 0.0085	-0.0115 ± 0.005	-0.018 ± 0.013	0.0045 ± 0.012	-0.053 ± 0.017	-0.0035 ± 0.0035	-0.0055 ± 0.0021	-0.007 ± 0.021
LPS:SRB	-0.0055 ± 0.013	-0.008 ± 0.0014	-0.017 ± 0.0042	-0.0085 ± 0.0021	-0.003 ± 0.0085	-0.011 ± 0.018	-0.015 ± 0.014	-0.117 ± 0.019	-0.005 ± 0.0014	-0.0105 ± 0.005	-0.0005 ± 0.0092	-0.0065 ± 0.0092	-0.01 ± 0.011	0.0085 ± 0.012	-0.0265 ± 0.0064	-0.006 ± 0.0028	0.003 ± 0.0042	-0.0055 ± 0.011
BE3C:CD87/uPAR	0.0095 ± 0.021	-0.0045 ± 0.00071	0.012 ± 0.014	0.002 ± 0.02	-0.004 ± 0.021	-0.007 ± 0.0071	0.013 ± 0.0028	-0.007 ± 0.0014	0.007 ± 0.017	-0.0075 ± 0.0078	0.0105 ± 0.035	0.014 ± 0.023	-0.039 ± 0.057	-0.028 ± 0.072	0.0245 ± 0.023	0.0055 ± 0.023	0.0395 ± 0.012	0.0365 ± 0.016
SAg:CD69	0.012 ± 0.061	0.0055 ± 0.025	0.023 ± 0.02	-0.023 ± 0.027	-0.0165 ± 0.028	-0.028 ± 0.037	-0.128 ± 0.02	-0.166 ± 0.0085	-0.0215 ± 0.011	-0.0205 ± 0.0092	-0.0045 ± 0.0064	-0.0645 ± 0.029	-0.0095 ± 0.0035	-0.0265 ± 0.011	-0.0355 ± 0.016	-0.0475 ± 0.028	-0.0395 ± 0.03	-0.099 ± 0.018
